The subject of assay [1] is Escherichia coli. Briefly: Ratio of Kcat to Km of Escherichia coli UDP-galactopyranose mutase. Also on record: unit not given here.
In assay [2] the test system is Escherichia coli. Briefly: Inhibition of Escherichia coli UDP-galactopyranose mutase assessed as inhibition of conversion to UDP-galactopyranose. Particulars: concentration not given here.
In assay [3] the test system is Escherichia coli. Description: Activity of Escherichia coli UDP-galactopyranose mutase by HPLC.
Assay [4] is described as follows: Binding affinity to Escherichia coli UDP-galactopyranose mutase.

What is called inhibition is the share of the control response that was lost under treatment. One may read the Km as the substrate concentration at which the rate is half of its maximum. As a reminder, the kcat is the number of substrate molecules converted per active site and unit of time at saturation. Regarding `O=c1ccn([C@@H]2O[C@H](COP(=O)(O)OP(=O)(O)O[C@H]3O[C@@H]([C@@H](O)CF)[C@H](O)[C@H]3O)[C@@H](O)[C@H]2O)c(=O)[nH]1`, in the assay with Escherichia coli [1], the kcat/Km is 0.00034. Also, in the assay on Escherichia coli [2], the inhibition stood at 20%. In addition, in the assay with Escherichia coli [3], the Km is 24000 µM and the kcat is 7.4 s⁻¹.

As for `O=c1ccn([C@@H]2O[C@H](COP(=O)(O)OP(=O)(O)O[C@H]3O[C@@H](CO)[C@H](O)[C@H]3O)[C@@H](O)[C@H]2O)c(=O)[nH]1`, in the assay with Escherichia coli [1], the kcat/Km came out at 0.02. For the same molecule, in the assay with Escherichia coli [3], the Km stood at 600 µM and the kcat turned out to be 12 s⁻¹.

On to `O=c1ccn([C@@H]2O[C@H](COP(=O)(O)OP(=O)(O)O[C@H]3O[C@@H]([C@@H](O)CO)[C@H](O)[C@H]3O)[C@@H](O)[C@H]2O)c(=O)[nH]1`, for which the kcat/Km with Escherichia coli [1] came out at 1.23. For the same molecule, in the assay with Escherichia coli [3], the Km worked out at 22 µM and the kcat is 27 s⁻¹.

For `O=c1ccn([C@@H]2O[C@H](COP(=O)(O)OP(=O)(O)O[C@H]3O[C@@H]([C@@H](O)CO)[C@H](O)[C@H]3F)[C@@H](O)[C@H]2O)c(=O)[nH]1`, the kcat/Km in the assay with Escherichia coli [1] was found to be 0.00041. Moreover, in the assay with Escherichia coli [3], the Km was found to be 65 µM and the kcat worked out at 0.033 s⁻¹.

In the case of `O=c1ccn([C@@H]2O[C@H](COP(=O)(O)OP(=O)(O)O[C@H]3O[C@@H]([C@@H](O)CO)[C@H](F)[C@H]3O)[C@@H](O)[C@H]2O)c(=O)[nH]1`, the kcat/Km in the assay on Escherichia coli [1] is 0.0054. In the assay with Escherichia coli [3], the Michaelis-Menten constant (Km) worked out at 861 µM and the kcat stood at 5.7 s⁻¹.

Usually Kd stands for the constant that tells how readily two partners part at equilibrium. In turn, `O=c1ccn([C@@H]2O[C@H](COP(=O)(O)OP(=O)(O)O)[C@@H](O)[C@H]2O)c(=O)[nH]1` [URIDINE_DIPHOSPHATE] yielded a Kd in assay [4] of 14 µM. For the same molecule, in the assay with Escherichia coli [2], the inhibition came to 22%.

The record behind these values is ChEMBL document CHEMBL1143322, “Probing UDP-galactopyranose mutase binding pocket: a dramatic effect on substitution of the 6-position of UDP-galactofuranose” (Bioorg Med Chem Lett, 2009).
